# Source: ChEMBL document CHEMBL1135290, “Synthesis of sub-micromolar inhibitors of MraY by exploring the region originally occupied by the diazepanone ring in the liposidomycin structure” (Bioorg Med Chem Lett, 2002)
# What was measured:
# Escherichia coli = assay: Tested in vitro for antibacterial activity against Escherichia coli using micro-broth dilution method; assay type: functional
# Staphylococcus aureus = assay: Tested in vitro for antibacterial activity against Staphylococcus aureus using micro-broth dilution method; assay type: functional
# Streptococcus pyogenes = assay: Tested in vitro for antibacterial activity against Streptococcus pyogenes using micro-broth dilution method; assay type: functional
# [1] = Inhibitory activity against Translocase I
# Enterococcus faecium = assay: Tested in vitro for antibacterial activity against Enterococcus faecium using micro-broth dilution method; assay type: functional
Structure (SMILES),MIC (Escherichia coli),MIC (Staphylococcus aureus),MIC (Streptococcus pyogenes),IC50 [1],MIC (Enterococcus faecium)
CCCCCCCCCCCCNC[C@H](O[C@@H]1O[C@H](CN)[C@@H](O)[C@H]1O)[C@@H]1C[C@@H](O)[C@H](n2ccc(=O)[nH]c2=O)O1.O=C(O)C(F)(F)F,2.5 µg/mL,5 µg/mL,2.5 µg/mL,700 nM,20 µg/mL
CCCCCNC[C@H](O[C@@H]1O[C@H](CN)[C@@H](O)[C@H]1O)[C@@H]1C[C@@H](O)[C@H](n2ccc(=O)[nH]c2=O)O1.O=C(O)C(F)(F)F,> 80 µg/mL,> 80 µg/mL,> 80 µg/mL,900 nM,> 80 µg/mL
CCCCCCCCCCNC[C@H](O[C@@H]1O[C@H](CN)[C@@H](O)[C@H]1O)[C@@H]1C[C@@H](O)[C@H](n2ccc(=O)[nH]c2=O)O1.O=C(O)C(F)(F)F,40 µg/mL,40 µg/mL,20 µg/mL,330 nM,80 µg/mL
CCCCCCCCCCCCCCNC[C@H](O[C@@H]1O[C@H](CN)[C@@H](O)[C@H]1O)[C@@H]1C[C@@H](O)[C@H](n2ccc(=O)[nH]c2=O)O1.O=C(O)C(F)(F)F,2.5 µg/mL,2.5 µg/mL,2.5 µg/mL,590 nM,10 µg/mL
